# Entries after “also recorded” stand apart in the source; their conditions may differ. Marks after values point to notes of the source that are not given here. *1 amine or outer side, *2 acyl side, *3 side chain or, on linkers, in order; H or OH if unused. Where no end group is shown, it is not given here. [ ]: non-standard residue; d: D form. γGlu = O=C(O)[C@H](CCC(=O)[*:2])N[*:1]
# Experiment: Sensory evaluation of body taste-imparting effect of γ-glutamyl peptides in umami solution and sweet taste solution (Example 2)
# Conditions: Sweet taste solution (6% sucrose); average score of 7 trained panelists, 5 levels, control = 3 points
# Experimental: Umami solution containing 0.7% MSG-0.4% NaCl and Sweet taste solution containing 6% sucrose were used as controls (3 points). And, sample solution was prepared by adding each γ-glutamyl peptide to the control. As comparative controls, γ-Glu-Val-Gly disclosed in Patent Document 1 and Patent Document 6 were used. The panelists were 7 trained panelists at Fuji Oil Holdings Inc. And, the panelist evaluated a body taste of from initial taste to middle taste, a thickness of from middle taste to aftertaste, and persistence with the following five levels.
# (§1) 5 points: feels much stronger than the control 4 points: feels stronger than the control 3 points: feels the same as the control 2 points: feels a little weaker than the control 1 point: feels much weaker than the control
Substance,Initial-middle taste,Middle-after taste
[γGlu][γGlu][γGlu][γGlu]Y,3.9* points,3.6 points
[γGlu]-Tyr [reference compound],3.5 points,3.9* points
[γGlu][γGlu][γGlu]Y,4.3* points,4.3* points
[γGlu]-Val-Gly [reference compound],3.6 points,4.3* points
[γGlu]-[γGlu]-Tyr,4.0* points,3.7* points

# Same assay, conditions: Umami solution (0.7% MSG-0.4% NaCl); average score of 7 trained panelists, 5 levels, control = 3 points
Substance,Initial-middle taste,Middle-after taste
[γGlu][γGlu][γGlu][γGlu]Y,3.9* points,3.7 points
[γGlu]-Tyr [reference compound],3.5 points,3.9* points
[γGlu][γGlu][γGlu]Y,4.1* points,4.0* points
[γGlu]-Val-Gly [reference compound],3.6 points,4.8* points
[γGlu]-[γGlu]-Tyr,4.0* points,3.9* points

# Same assay, conditions: umami and sweet taste solutions, summary of Table 1
Substance,body taste of from the initial taste to middle taste (in words),persistence of the aftertaste (in words),taste from the middle taste to aftertaste (in words)
[γGlu][γGlu][γGlu][γGlu]Y,sufficiently imparted a body taste,–,–
[γGlu]-Tyr [reference compound],imparted little body taste,persistent of the strong aftertaste,strong
[γGlu][γGlu][γGlu]Y,imparted the body taste overall,suppressed,–
[γGlu]-Val-Gly [reference compound],imparted little body taste,persistent of the strong aftertaste,strong
[γGlu]-[γGlu]-Tyr,imparted the body taste overall,suppressed,–

# Experiment: Sensory evaluation of body taste-imparting effect on sweet taste solution (Example 3)
# Conditions: Sweet taste solution (6% sucrose), 100 ppm peptide; average score of eight trained panelists, 5 levels, control = 3 points
# Experimental: Sweet taste solution containing 6% sucrose was used as a control (3 points). And, sample solution was prepared by adding 100 ppm of each γ-glutamyl tripeptide to the control. As comparative controls, γ-Glu-γ-Glu-Val and γ-Glu-γ-Glu-α-Glu-Tyr were used. The panelists were eight trained panelists at Fuji Oil Holdings Inc. And, the panelist evaluated a body taste of from initial taste to middle taste with the following five levels.
# as §1
row,Substance,Initial-middle taste
1,[γGlu][γGlu][γGlu]P,3.1 points
2,[γGlu][γGlu][γGlu]V,3.4 points
3,[γGlu][γGlu][γGlu]F,3.4 points
4,[γGlu][γGlu][γGlu]N,3.3 points
5,[γGlu]-[γGlu]-Val,3.1 points
6,[γGlu][γGlu][γGlu]D,3.4 points
7,[γGlu][γGlu][γGlu]L,3.3 points
8,[γGlu][γGlu][γGlu]W,3.1 points
9,[γGlu][γGlu]EY,3.4 points
10,[γGlu][γGlu][γGlu]H,3.5* points
11,[γGlu][γGlu][γGlu]Q,3.3 points
12,[γGlu][γGlu][γGlu]E,3.5* points
13,[γGlu][γGlu][γGlu]I,3.4 points
14,[γGlu][γGlu][γGlu]R,4.1** points
15,[γGlu][γGlu][γGlu]Y,4.3** points
16,[γGlu][γGlu][γGlu]K,3.1 points
17,[γGlu][γGlu][γGlu]M,3.0 points
18,[γGlu][γGlu][γGlu]C,3.0 points
19,[γGlu][γGlu][γGlu]G,3.1 points
20,[γGlu][γGlu][γGlu]T,2.9 points
21,[γGlu][γGlu][γGlu]S,3.4 points
22,[γGlu][γGlu][γGlu]A,3.4 points

# Same assay, conditions: Sweet taste solution (6% sucrose), 100 ppm peptide; summary of FIG. 3 and Table 2
row,Substance,body taste-imparting effect (in words)
1,[γGlu][γGlu][γGlu]V,particularly effective; also recorded: superior to γ-Glu-γ-Glu-Val
2,[γGlu][γGlu][γGlu]F,particularly effective
3,[γGlu][γGlu][γGlu]D,particularly effective
4,[γGlu][γGlu][γGlu]L,particularly effective
5,[γGlu][γGlu]EY,an effect was also observed
6,[γGlu][γGlu][γGlu]H,particularly effective
7,[γGlu][γGlu][γGlu]E,particularly effective
8,[γGlu][γGlu][γGlu]I,particularly effective
9,[γGlu][γGlu][γGlu]R,particularly effective
10,[γGlu][γGlu][γGlu]Y,particularly effective
11,[γGlu][γGlu][γGlu]S,particularly effective
12,[γGlu][γGlu][γGlu]A,particularly effective
